Experimental data as given in patent publication US20250281440A1, “METHOD TO IMPROVE GROWTH PERFORMANCE, LIVABILITY, CARCASS CHARACTERISTICS AND/OR MILK QUALITY IN SWINE” (NutriQuest, LLC, priority 2024, published 2025).
Values joined by “and” are separate entries in the source; they are usually repeats but may differ in a detail not shown here. Equal entries are not always repeated. Marks after values point to notes of the source that are not given here.

What was measured:
[1] = tested on: commercial finishing pigs (PIC 800×PIC 1050); test: Carcass characteristics of finishing pigs fed increasing dietary 78% Na-DMG (Example 1); assay type: in vivo; conditions: for 10th-rib backfat depth reduction (numerical) / Loin depth improvement compared to Control: carcasses; for Loin depth improvement compared to Control: P<0.05
Procedure: A study was conducted to evaluate the impact of increasing dietary levels of 78% Na-DMG on carcass characteristics of commercial finishing pigs (PIC 800×PIC 1050). A total of 723 mixed-sex finishing pigs (initial BW=179.5±1.0 lb) were housed in pens with 25 to 27 pigs per pen. […] This experiment extended over a 6-week period until pigs were harvested at 292.5±1.7 lb of BW.

[2] = tested on: sows (PIC 1050); test: Milk fat content in sows fed Na-DMG (78%) (Example 2); assay type: in vivo, pigs
[3] = tested on: commercial finishing pigs; test: Growth performance, livability and carcass characteristics of finishing pigs fed DMG (Example 3); assay type: in vivo; conditions: for ADFI / Carcass yield / Closeout ADG / Closeout G/F / End BW / Fat depth / Fat-free carcass lean / Hot carcass weight / Loin depth / Non-selected pigs (lights and culls) / Morbidity / Mortality / Pigs sold to primary market: 8-wk
From the text: To evaluate the impact of increasing dietary levels of 78% sodium dimethylglycine (DMG) on growth performance, livability, and carcass characteristics of commercial finishing pigs, a total of total of 1,115 mixed-sex finishing pigs (initial BW=70.1±1.8 kg) were housed in pens with 25 to 27 pigs per pen. Pens within block were assigned randomly to one of four dietary treatments containing 0 (Control), 0.25 (DMG_0.25), 0.5 (DMG_0.5) or 1.0 (DMG_1.0) g DMG/kg of feed with 11 replicates per treatment. This experiment extended over an 8-wk period until pigs were harvested at 125.4±0.8 kg of BW.
Data were analyzed using the MIXED procedure of SAS, and preplanned orthogonal contrasts were conducted to evaluate pairwise comparisons as well as linear and quadratic effects related to the increased levels of DMG. While no linear effect was observed, there was a tendency for a quadratic response in closeout feed efficiency (G/F, P=0.08) and the percentage of pigs with morbidity (P=0.06), with the most favorable responses found in pigs fed DMG_0.25 (Table 2).

[4] = tested on: growing pigs; test: Incidence of lameness in pigs fed DMG (Example 4); assay type: in vivo
Procedure: A total of 1,180 growing pigs (initial BW=51.4±1.0 lb) were housed in pens with 25 to 27 pigs per pen. […] This experiment extended over a 17-wk period until pigs were harvested at 292.5±1.7 lb of BW. Signs of lameness were recorded, and percentage of pigs removed to hospital pens due to lameness were calculated (Table 3).

[5] = tested on: finishing pigs; test: Meta-analysis (3-trial combined) of morbidity, mortality and F/G in late finishing pigs fed Na-DMG (Examples 5 and 7); assay type: in vivo
From the text: Three studies were compiled to evaluate the effects of dietary supplementation of Na-DMG (78%) on morbidity and mortality in finishing pigs. In each study, pigs were fed either a Control diet or diet containing Na-DMG at 0.50 lb/ton from approximately 180 lb of body weight until harvested at 290 lb for a period of 6 to 8 weeks. […] Reasons of morbidity and mortality included, but not limited to, lameness, ileitis, bacterial infection, injury, prolapse, intestinal torsion, stomach ulcers, abdominal rupture, bloat, failure to eat.
(§1) Animals produce greenhouse gases due to biological processes for growth and maintenance functions. Pig production would therefore be a source of greenhouse gases and wean to finish production would result in production of carbon dioxide, methane, and nitrous oxide emissions. Using the Iowa Pork Industry's sustainability calculator, we calculated the impact feedings of DMG in late finishing would have on greenhouse gas emissions. […] We then took similar estimates for early performance and estimated F/G and mortality for an entire grow-out period to use in the calculator. The calculator provides equivalent lb. of carbon dioxide per lb. or market weight for comparison purposes. By adding DMG in late finishing, carbon dioxide emissions were reduced by 3% during the entire wean to finish grow-out.

[6] = tested on: lactating sows; test: Serum non-esterified fatty acids (NEFA) in lactating sows (Example 6); assay type: in vivo, pigs; conditions: 445 mg Na-DMG per day, measured at weaning
From the text: Serum non-esterified fatty acids (NEFA) are molecules released from adipose tissue during periods of energy demand or catabolic status. In research of energy metabolism, NEFA level has been used as biomarker to assess balance between fat mobilization and energy expenditure.

[7] = Calculated wean-to-finish performance and greenhouse gas emissions, Pork Sustainability Calculator (Example 7); set-up: species or system pigs; conditions: DMG @ 0.5 lb/ton in late finishing
From the text: as §1

[8] = tested on: rats; conditions: when folate was sufficient; cited from earlier work
[9] = tested on: sows; conditions: sows fed DMG from day 105 of gestation until day 3 of lactation; cited from earlier work
[10] = tested on: broilers; conditions: cited from earlier work
[11] = Na-DMG 0.50 lb/ton, approx. 180 to 290 lb BW, 6 to 8 weeks

CN(C)CC(=O)O [DMG, N,N-dimethylglycine]
Fat-free carcass lean ([1]; DMG at 0.25 lb/ton, P<0.10): tended to be improved | 10th-rib backfat depth reduction (numerical) ([1]; DMG at 0.25 lb/ton): 3.4% | Loin depth improvement compared to Control ([1]; DMG at 0.25 lb/ton): 2.5% | 10th-rib backfat depth reduction (numerical) ([1]; DMG at 0.50 lb/ton): 2.3% | Loin depth improvement compared to Control ([1]; DMG at 0.75 lb/ton): 3.5% | Loin depth, response to increasing dietary DMG level ([1]; increasing dietary DMG level, P=0.04): linearly improved | Total milk fat, % (Day 10-14 in lactation) ([2]; 0.5 lb/ton from day 100 of gestation through lactation): 6.114% | Total milk fat, % (Day 10-14 in lactation) ([2]; 0.5 lb/ton from farrowing through lactation): 5.973% | Carcass characteristics (hot carcass weight, carcass yield, fat depth, loin depth, fat-free carcass lean) ([3]; 0.25, 0.5 and 1.0 g DMG/kg feed vs Control): not different among treatments | ADFI ([3]; 0.25 g DMG/kg feed): 3.00^b kg/day | Carcass yield ([3]; 0.25 g DMG/kg feed): 72.6% | Closeout ADG ([3]; 0.25 g DMG/kg feed): 1.01 kg/day and 1.01^y kg/day | Closeout G/F ([3]; 0.25 g DMG/kg feed): 0.337 | End BW ([3]; 0.25 g DMG/kg feed): 126.4 kg | Fat depth ([3]; 0.25 g DMG/kg feed): 16.6 mm | Fat-free carcass lean ([3]; 0.25 g DMG/kg feed): 56.2% | Hot carcass weight ([3]; 0.25 g DMG/kg feed): 93.5 kg | Loin depth ([3]; 0.25 g DMG/kg feed): 62.5 mm | Non-selected pigs (lights and culls) ([3]; 0.25 g DMG/kg feed): 8.7% | Increase in closeout ADG compared with Control ([3]; 0.25 g DMG/kg feed, P=0.02): 6% | Increase in closeout G/F compared with Control ([3]; 0.25 g DMG/kg feed, P=0.05): 4% | ADFI ([3]; 0.5 g DMG/kg feed): 2.93^a kg/day | Carcass yield ([3]; 0.5 g DMG/kg feed): 73.6% | Closeout ADG ([3]; 0.5 g DMG/kg feed): 0.95^x kg/day | Closeout G/F ([3]; 0.5 g DMG/kg feed): 0.326 | End BW ([3]; 0.5 g DMG/kg feed): 124.9 kg | Fat depth ([3]; 0.5 g DMG/kg feed): 17.0 mm | Fat-free carcass lean ([3]; 0.5 g DMG/kg feed): 56.0% | Hot carcass weight ([3]; 0.5 g DMG/kg feed): 94.1 kg | Loin depth ([3]; 0.5 g DMG/kg feed): 62.2 mm | Morbidity ([3]; 0.5 g DMG/kg feed): 0.7^cd % | Mortality ([3]; 0.5 g DMG/kg feed): 2.5^d % | Non-selected pigs (lights and culls) ([3]; 0.5 g DMG/kg feed): 9.4% | Pigs sold to primary market ([3]; 0.5 g DMG/kg feed): 87.4% | ADFI ([3]; 1.0 g DMG/kg feed): 2.99^ab kg/day | Carcass yield ([3]; 1.0 g DMG/kg feed): 73.8% | Closeout ADG ([3]; 1.0 g DMG/kg feed): 0.97^xy kg/day | Closeout G/F ([3]; 1.0 g DMG/kg feed): 0.323 | End BW ([3]; 1.0 g DMG/kg feed): 125.8 kg | Fat depth ([3]; 1.0 g DMG/kg feed): 16.8 mm | Fat-free carcass lean ([3]; 1.0 g DMG/kg feed): 56.0% | Hot carcass weight ([3]; 1.0 g DMG/kg feed): 94.2 kg | Loin depth ([3]; 1.0 g DMG/kg feed): 61.7 mm | Morbidity ([3]; 1.0 g DMG/kg feed): 2.2^d % | Mortality ([3]; 1.0 g DMG/kg feed): 1.4^cd % | Non-selected pigs (lights and culls) ([3]; 1.0 g DMG/kg feed): 6.5% | Pigs sold to primary market ([3]; 1.0 g DMG/kg feed): 90.0% | Growth performance and livability compared with Control ([3]; DMG at 0.5 and 1.0 g/kg, P>0.10): not different compared with Control | Lameness (pigs removed to hospital pens due to lameness) ([4]; DMG_0.25 (0.25 lb DMG/ton feed), 17-wk): 0.3%^d | Lameness (pigs removed to hospital pens due to lameness) ([4]; DMG_0.50 (0.50 lb DMG/ton feed), 17-wk): 0.7%^cd | Lameness (pigs removed to hospital pens due to lameness) ([4]; DMG_0.75, 17-wk): 1.4%^cd | Incidence of lameness compared to Control ([4]; regardless of dietary concentration, statistically (P<0.10) or numerically (P>0.10)): reduced incidence of lameness | Closeout F/G, late finishing testing period ([5]; DMG @ 0.5 lb/ton): 3.30 | Closeout F/G, late finishing testing period, % Change vs Control ([5]; DMG @ 0.5 lb/ton): −4.6% | Mortality, late finishing testing period, % Change vs Control ([5]; DMG @ 0.5 lb/ton): −39.0% | Reduction of morbidity compared to Control ([5]; Na-DMG 0.50 lb/ton): 72% | Reduction of total removal compared to Control ([5]; Na-DMG 0.50 lb/ton): 53% | Morbidity [5, 11]: 0.36% | Mortality [5, 11]: 1.08% | Non-selected (culls and lights) [5, 11]: 5.48% | Pigs sold to primary market [5, 11]: 93.1% | Total pigs finished [5, 11]: 98.6% | Total removal [5, 11]: 1.44% | Serum NEFA reduction compared to Control [6]: 32% | Calculated wean-to-finish closeout F/G, % Change vs Control [7]: −2.6% | Calculated wean-to-finish mortality, % Change vs Control [7]: −18.3% | Calculated wean-to-finish mortality ([7]; early mortality rate of 2% combined): 3.08% | Calculated wean-to-finish closeout F/G ([7]; feed budget of 353 lb per pig combined): 2.58 | Plasma homocysteine level [8]: significantly reduced | Nutrient digestibility [9]: improved nutrient digestibility | Nutrient digestibility [10]: improved nutrient digestibility
